# Source: ChEMBL document CHEMBL3727349, “Thieno- and furo - pyrimidines and pyridines, useful as potassium channel inhibitors” (2013)
# Target: T1, Kir3.1/Kir3.4 (Rattus norvegicus, UniProt P48548+P63251)
# T1 sequence (P63251 whole entry): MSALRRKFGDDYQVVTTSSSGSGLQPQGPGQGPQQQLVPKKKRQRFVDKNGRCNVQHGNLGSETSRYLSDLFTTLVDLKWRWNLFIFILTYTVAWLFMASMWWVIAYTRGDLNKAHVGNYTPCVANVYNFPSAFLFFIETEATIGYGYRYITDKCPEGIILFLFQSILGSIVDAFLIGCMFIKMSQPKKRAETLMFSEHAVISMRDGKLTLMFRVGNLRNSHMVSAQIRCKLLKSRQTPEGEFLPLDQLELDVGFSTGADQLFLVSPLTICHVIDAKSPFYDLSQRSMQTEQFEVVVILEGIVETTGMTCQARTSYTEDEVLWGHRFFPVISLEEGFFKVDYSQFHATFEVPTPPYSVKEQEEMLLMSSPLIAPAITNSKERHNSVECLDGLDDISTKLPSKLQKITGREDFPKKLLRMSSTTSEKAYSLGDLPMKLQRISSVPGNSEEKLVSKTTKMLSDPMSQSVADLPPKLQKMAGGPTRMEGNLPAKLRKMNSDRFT
# T1 sequence (P48548 whole entry): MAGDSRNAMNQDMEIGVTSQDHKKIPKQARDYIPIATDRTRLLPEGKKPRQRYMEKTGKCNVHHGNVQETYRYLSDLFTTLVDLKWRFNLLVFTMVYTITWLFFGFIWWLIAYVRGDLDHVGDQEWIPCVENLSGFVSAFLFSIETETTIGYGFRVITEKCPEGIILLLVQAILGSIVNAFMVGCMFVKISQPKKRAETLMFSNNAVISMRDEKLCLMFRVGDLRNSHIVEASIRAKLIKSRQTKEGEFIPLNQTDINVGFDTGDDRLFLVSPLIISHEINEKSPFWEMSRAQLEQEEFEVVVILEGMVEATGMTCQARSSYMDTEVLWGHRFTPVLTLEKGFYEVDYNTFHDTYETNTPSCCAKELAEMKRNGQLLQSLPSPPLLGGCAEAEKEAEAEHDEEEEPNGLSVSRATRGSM
# Assay: Inhibition of rat Kir3.1/Kir3.4 expressed in HEK293 cells assessed as reduction in depolarizing voltage step-induced recombinant G-protein activated inward rectifier current by whole cell patch clamp assay
# Format: cell-based
row,SMILES,IC50
1,NC(=O)[C@H]1CCCN1CCOCC1C2CN(c3ncnc4scc(-c5ccccc5)c34)CC12 (some centres not stated),< 500 nM
2,c1ccc(-c2csc3ncnc(N4CC5C(COCCN6CCCC6)C5C4)c23)cc1 (configuration not stated),< 500 nM
3,F[C@@H]1CCN(CCOCC2C3CN(c4ncnc5scc(-c6ccccc6)c45)CC23)C1 (some centres not stated),< 500 nM
4,Fc1cccc(-c2csc3ncnc(N4CCC(COCCN5CCCC5)CC4)c23)c1,< 500 nM
5,CN1CCCC1CCOCC1C2CN(c3ncnc4scc(-c5ccccc5)c34)CC12 (configuration not stated),< 500 nM
6,Cc1sc2ncnc(N3CCC(COCCC4CCCN4C)CC3)c2c1C (configuration not stated),< 500 nM
7,Fc1ccc(-c2csc3ncnc(N4CCC(COCCN5CCCC5)CC4)c23)cc1,< 500 nM
8,F[C@H]1CCN(CCOCC2C3CN(c4ncnc5scc(-c6ccccc6)c45)CC23)C1 (some centres not stated),< 500 nM
9,CCc1c(C)sc2ncnc(N3CCC(COCCN4CCCC4)CC3)c12,< 500 nM
10,COc1ncccc1-c1csc2ncnc(N3CCC(COCCN4CCCC4)CC3)c12,< 500 nM
11,CC(C)c1cc2c(N3CCC(COCCN4CCOCC4)CC3)ncnc2s1,≤ 3000 nM
12,NC(=O)[C@@H]1CCCN1CCOCC1C2CN(c3ncnc4scc(-c5ccccc5)c34)CC12 (some centres not stated),< 500 nM
13,CCc1c(C)sc2ncnc(N3CCC(COCCC4CCCCN4C)CC3)c12 (configuration not stated),< 500 nM

# Now from value to compound:
row,IC50,SMILES
1,< 500 nM,CN1CCCC1CCOCC1CCN(c2ncnc3scc(-c4ccccc4)c23)CC1 (configuration not stated)
2,< 500 nM,CN1CCC(OCC2CCN(c3ncnc4scc(-c5ccccc5)c34)CC2)CC1
3,< 500 nM,c1ccc(-c2csc3ncnc(N4CCC(COCCN5CCOCC5)CC4)c23)cc1
4,< 500 nM,NC(=O)C1CCN(CCOCC2CCN(c3ncnc4scc(-c5ccccc5)c34)CC2)C1 (configuration not stated)
5,< 500 nM,CN(C)CCCOCC1CCN(c2ncnc3scc(-c4ccccc4)c23)CC1
6,< 500 nM,CN1CCCC1CCOCC1CCN(c2ncnc3scc(-c4cccc(F)c4)c23)CC1 (configuration not stated)
7,< 500 nM,FC1(F)CCN(CCOCC2CCN(c3ncnc4scc(-c5ccccc5)c34)CC2)C1
8,< 500 nM,NC(=O)C1CCCN1CCOCC1CCN(c2ncnc3scc(-c4ccccc4)c23)CC1 (configuration not stated)
9,< 500 nM,CN(C)CCOCC1CCN(c2ncnc3scc(-c4ccccc4)c23)CC1
10,< 500 nM,CC(=O)NC1CCN(CCOCC2CCN(c3ncnc4scc(-c5ccccc5)c34)CC2)C1 (configuration not stated)
11,< 500 nM,c1ccc(-c2csc3ncnc(N4CCC(COCCN5CC6CC5CO6)CC4)c23)cc1 (configuration not stated)
12,< 500 nM,CN1CCCCC1CCOCC1CCN(c2ncnc3scc(-c4ccccc4)c23)CC1 (configuration not stated)
13,< 500 nM,F[C@H]1CCN(CCOCC2CCN(c3ncnc4scc(-c5ccccc5)c34)CC2)C1
14,< 500 nM,CN1CCC(OCC2CCN(c3ncnc4scc(-c5ccccc5)c34)CC2)C1 (configuration not stated)
